From patent publication US20220401482A1, “GENERATION OF CD38 KNOCK-OUT PRIMARY AND EXPANDED HUMAN NK CELLS” (RESEARCH INSTITUTE AT NATIONWIDE CHILDREN'S HOSPITAL, priority 2019, published 2022)

How the values were obtained:
[1] = test system: H929 cell line; experiment: Flow-based cytotoxicity assay; format: cell-based, human; details: absence of NK cells and complement, DARA 10 μg/ml, 4 hours
Protocol: FIGS. 11A-11D show resistance of CD16^KO NK cells to DARA-induced fratricide.
(§1) To assess ADCC, MM cell lines or purified primary CD138^+ MM cells were labeled with 5 μM of CFSE and co-cultured with CD38^WT or CD38^KO NK cells at the indicated effector-to-target (E:T) ratios in flat bottom 96-well plates (Falcon, USA) in the presence of 10 μg/ml of DARA or solvent as control^38. […] The viability of target cells was analyzed after 4 hours for MM cell lines, and 24 hours for primary samples. In some experiments, myeloma cell lines were pretreated with 50 nM of ATRA for 2 days prior to 4-hour cytotoxicity assay. To study the effect of ATRA on overall DARA-mediated NK cell cytotoxicity, MM cells and NK cells were co-cultured for 48 hours in the presence of DARA and 50 nM of ATRA. Viable target cells were assessed from the percent or absolute number of 7-AAD negative/CFSE positive cells among total CFSE positive cells or using beads. Background was determined from the target cells incubated in the absence of effector cells and DARA. The percentage of DARA-mediated ADCC (%) was calculated according to the formula: (1−the percent or absolute number of viable target cells in the presence of effector cells with DARA/that of the corresponding sample with solvent control)×100. All assays were performed in triplicate with 2 or 3 independent donors.

[2] = test system: NK cells; details: patients; cited from earlier work
[3] = test system: NK cells; experiment: NK cell fratricide assay (viability of NK cells treated with anti-CD38 antibody); format: cell-based, human; details: DARA 48 hours with 50 nM ATRA
Protocol: NK function assays. NK cell conjugation assay was performed as previously published and as detailed above. […] Flow-based killing assays were performed as detailed in Supplemental Methods. In brief, CD38^WT or CD38^KO NK cells were co-cultured with CFSE-labeled target MM cells for 4 or 24 hours in the presence of 10 μg/ml of DARA or solvent as control.
[…] Viable NK cells (PO-PRO™-1 negative/7-AAD negative) were assessed based on the frequency or absolute number using beads (Becton Dickinson Biosciences).

[4] = test system: MM cell lines; experiment: Flow-based cytotoxicity / ADCC assay; format: cell-based, human
Protocol: NK function assays. NK cell conjugation assay was performed as previously published and as detailed above. To quantify fratricide, CD38^WT and CD38^KO NK cells were each treated with 10 μg/ml of DARA or solvent control for 4 or 24 hours, then stained with PO-PRO™-1 dye (Invitrogen, Eugene, Oreg.) and 7-aminoactinomycin D (7-AAD) (Invitrogen, Eugene, Oreg.)^15. Flow-based killing assays were performed as detailed in Supplemental Methods. In brief, CD38^WT or CD38^KO NK cells were co-cultured with CFSE-labeled target MM cells for 4 or 24 hours in the presence of 10 μg/ml of DARA or solvent as control.
as §1

[5] = test system: CD38 on MM cell lines; experiment: CD38 expression on MM cell lines after ATRA; format: cell-based, human; details: pretreatment, 50 nM, 48 hours
Text: Control and ATRA treated samples are shown with black and gray line respectively. Unstained controls are depicted with filled histogram.

[6] = test system: CD38 on NK cells; experiment: CD38 expression on NK cells after ex vivo ATRA; format: cell-based, human; details: 50 nM, 48 hours
Protocol: (§2) FIGS. 15A-15B show cytotoxicity and DARA-mediated ADCC activity of paired CD38^WT and CD38^KO NK cells against myeloma cell lines pretreated with 50 nM ATRA for 48 hours (mean±SD). […] Frozen peripheral blood mononuclear cells were thawed and analyzed at once. […] Control and ATRA treated samples are shown with black and gray line respectively. Unstained controls are depicted with filled histogram. […] FIGS. 15F-15G Cytotoxicity and DARA-mediated ADCC activity of paired CD38^WT and CD38^KO NK cells against myeloma cell lines in a 48 hour-cytotoxicity assay in the presence of 50 nM ATRA or solvent control. E:T ratio is 0.25:1 for MM.1S and 0.5:1 for KMS-11 (mean±SD).

[7] = test system: CD38 on NK cells; experiment: CD38 expression on PB-NK of APL patients during ATRA treatment; format: in vivo, human; details: consolidation therapy, versus prior to treatment
Protocol: as §2

[8] = concurrent treatment of MM and NK cells, 50 nM, 48 hours

Compound | DARA-mediated lysis [1] | persistence of decrease in circulating NK cells after discontinuation of treatment [2] | fratricide of CD38^WT NK cells [3] | DARA-mediated ADCC ([4]; MM cells pretreated with ATRA, both CD38^WT and CD38^KO NK cells) | DARA-mediated ADCC of CD38^KO NK cells [4, 8] | DARA-mediated ADCC of CD38^WT NK cells [4, 8] | direct cytotoxicity of CD38^WT and paired CD38^KO NK cells ([4]; concurrent treatment, 50 nM, 48 hours) | CD38 levels on MM target cells [5] | CD38 levels on CD38^KO NK cells [6] | CD38 levels on CD38^WT NK cells [6] | CD38 on PB-NK of patients [7]
DARA: monoclonal antibody targeting CD38 | no DARA-mediated lysis | 3-6 months | – | – | – | – | – | – | – | – | –
CC1=C(/C=C/C(C)=C/C=C/C(C)=C/C(=O)O)C(C)(C)CCC1 [ATRA, all-trans retinoic acid] | – | – | enhanced fratricide | improves DARA-mediated ADCC | no impact | significantly impaired | significantly reduced direct cytotoxicity | up-regulates CD38 levels | not on the paired CD38^KO NK cells | up-regulates CD38 levels | significant up-regulation of CD38
